According to PMC11206029, “Identification and Characterization of Cannabichromene’s Major Metabolite Following Incubation with Human Liver Microsomes” (Metabolites, 2024):
Like-named read-outs stand apart in the source and are kept apart here.

What was measured:
[1] = system: microglia; parameters: method as in PMID 38477310; conditions: microglia following lipopolysaccharide challenge; cited from earlier work
[2] = target: human recombinant CB1R (Homo sapiens, UniProt P21554); test: biochemical; type: binding
[3] = target: human recombinant CB2R (Homo sapiens, UniProt P34972); test: Competitive radioligand binding assay, displacement of [^3H]CP 55,940; conditions: for Hill Slope: CB2R, means ± S.E.M. of four to ten experiments
[4] = parameters: method as in PMID 1806943; conditions: hamster-derived liver microsomes; cited from earlier work
[5] = Incubation of CBC with pooled human liver microsomes, metabolite identification; type: in vitro ADME
Procedure: To maximize the yield of CBC metabolites, parameters including incubation time, HLM protein concentration, and CBC concentration were optimized, and representative extracted ion chromatograms are available in the Supplementary Materials (Section S1.2). The parameters resulting in the highest yield of metabolites were determined to be 0.5 mg/mL HLM, 50 µg/mL CBC, and a 40 min incubation time. Prior to adding the drug, the NADPH-generating system was incubated on a shaker set to 150 rpm at a temperature of 37 ± 2 °C for 10 min (C24 Incubator Shaker, New Brunswick Scientific, Edison, NJ, USA). […]
The HPLC components for the semi-preparative isolation of the major CBC metabolite were as follows: G1322A degasser, G1312A binary pump, G1329B 1260 ALS, G1315B DAD, G1364B fraction collector (all Agilent Technologies, Santa Clara, CA, USA), and an external column compartment ThermaSphere (Phenomenex, Torrance, CA, USA). […] UV absorbance was monitored at 210 nm and 231 nm. […] Isolated metabolites and controls were analyzed utilizing both LC-MS/MS and GC-MS/MS as described below. […]
Samples were derivatized and analyzed using GC-MS/MS based on the previous literature. […] Samples were cooled, transferred to autosampler vials and immediately analyzed via GC-MS/MS. […]

[6] = parameters: method as in PMID 1806943; conditions: cat-derived liver microsomes; cited from earlier work
[7] = parameters: method as in PMID 1806943; conditions: gerbil-derived liver microsomes; cited from earlier work
[8] = parameters: method as in PMID 37574147; conditions: human hepatic biotransformation; cited from earlier work

Chain of human recombinant CB2R (P34972 whole entry): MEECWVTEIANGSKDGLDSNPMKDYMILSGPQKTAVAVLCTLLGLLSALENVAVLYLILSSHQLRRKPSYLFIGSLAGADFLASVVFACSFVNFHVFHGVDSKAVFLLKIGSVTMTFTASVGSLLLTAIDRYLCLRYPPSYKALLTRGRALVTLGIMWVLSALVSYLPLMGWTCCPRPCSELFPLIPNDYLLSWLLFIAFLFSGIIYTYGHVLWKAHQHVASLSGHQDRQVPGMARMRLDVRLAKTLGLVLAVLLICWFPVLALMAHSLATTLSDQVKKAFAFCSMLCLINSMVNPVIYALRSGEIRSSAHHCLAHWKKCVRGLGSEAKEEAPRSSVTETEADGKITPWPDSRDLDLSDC
Chain of human recombinant CB1R (P21554 whole entry): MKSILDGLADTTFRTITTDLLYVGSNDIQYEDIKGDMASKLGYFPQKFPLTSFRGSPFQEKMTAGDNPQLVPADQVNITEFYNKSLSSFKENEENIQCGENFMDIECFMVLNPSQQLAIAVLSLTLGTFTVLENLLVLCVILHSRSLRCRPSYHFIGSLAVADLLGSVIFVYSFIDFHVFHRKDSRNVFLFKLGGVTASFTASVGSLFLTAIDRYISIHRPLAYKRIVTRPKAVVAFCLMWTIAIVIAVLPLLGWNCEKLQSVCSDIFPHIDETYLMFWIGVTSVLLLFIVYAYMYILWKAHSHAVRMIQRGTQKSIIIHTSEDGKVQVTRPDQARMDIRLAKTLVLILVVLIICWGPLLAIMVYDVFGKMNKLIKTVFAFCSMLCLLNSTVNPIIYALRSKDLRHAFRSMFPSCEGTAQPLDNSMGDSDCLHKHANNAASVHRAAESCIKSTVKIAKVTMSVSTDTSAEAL

Row | SMILES | Inflammatory phenotype by nitric oxide production [1] | Ki [2] | Ki [3] | Hill Slope [3] | also measured
1 | CCCCCc1cc(O)c2c(c1)OC(C)(CCC(O)C(C)(C)O)C=C2 (stereo not drawn) [6′, 7′-dihydroxy-CBC] | reduction in nitric oxide production |  |  |  | 
2 | CCCCCc1cc2c3c(c1)OC(C)(C)C1CCC(C)(CC31)O2 (stereo not drawn) [CBT-C, cannabicitran, reference compound] |  | > 10 µM | 4.2 ± 0.41 µM | −1.15 ± 0.14 | 
3 | CCCCCc1cc(O)c2c(c1)OC(C)(CCC=C(C)C)C=C2 (stereo not drawn) [CBC, Cannabichromene] |  | 3.5 ± 1.2 µM | 0.301 ± 0.072 µM | −1.32 ± 0.36 | Hill Slope ([2]; CB1R, means ± S.E.M. of four to ten experiments): −0.27 ± 0.51; Epoxidation across the alkene on the branched aliphatic chain, share of the total amount of metabolites generated [4]: 10%; Major metabolite generated by HLMs ([5]; 0.5 mg/mL HLM, 50 µg/mL CBC, 40 min incubation, NADPH-generating system): 2′-hydroxycannabicitran; Formation of carboxylic acid metabolites ([5]; incubation with HLM, optimized conditions): did not observe any carboxylic acid metabolites; Epoxidation across the alkene on the branched aliphatic chain, share of the total amount of metabolites generated [6]: 42%; Epoxidation across the alkene on the branched aliphatic chain, share of the total amount of metabolites generated [7]: 12%; Hydroxylation, share of all CBC metabolites produced [8]: 31%; Monoglucuronides, share of all CBC metabolites produced [8]: ~50%
4 | CCCCCc1cc2c3c(c1)OC1(C)CCC(C3C1O)C(C)(C)O2 (stereo not drawn) [2′-hydroxycannabicitran] |  | > 10 µM | > 10 µM |  | 
5 | CCCCCc1cc(O)c2c(c1)OC(C)(CC/C=C(\C)CO)C=C2 (stereo not drawn) [8′-hydroxy-CBC] | pro-inflammatory |  |  |  | 
